In PMC5797143, “Epigenetic modulation of inflammation and synaptic plasticity promotes resilience against stress in mice” (Nature Communications, 2018):

How the values were obtained:
Assay in all cases: Radioligand binding assay
[1] = biological target: T1, 5-HT1B (serotonin receptor) (Homo sapiens, UniProt P28222); settings: 10 µM; HEK membrane fractions; quadruplicate
T1 construct: purchased NIMH Psychoactive Drug Screening Program (PDSP)
Procedure: (§1) Radioligand binding assays were performed as previously described. Briefly, crude membrane fractions prepared from a stable HEK cell line expressing recombinant receptors were mixed with a radiolabeled specific ligand and 10 µM of competitor compound (DHCA, Mal-gluc, or non-specific ligand). The percentage of radioligand binding was subsequently measured.

[2] = biological target: T2, 5-HT1D (serotonin receptor) (Homo sapiens, UniProt P28221); settings: for Binding activity, 5-HT1D (percentage): 10 µM, HEK membrane fractions, quadruplicate
T2 construct: expressed in transfected cells; crude membrane fractions
Procedure: as §1

[3] = biological target: T3, 5-HT2A (serotonin receptor) (Homo sapiens, UniProt P28223); settings: 10 µM; HEK membrane fractions; quadruplicate
T3 construct: purchased NIMH Psychoactive Drug Screening Program (PDSP)
Procedure: as §1

[4] = biological target: T4, 5-HT2B (serotonin receptor) (Homo sapiens, UniProt P41595); settings: 10 µM; HEK membrane fractions; quadruplicate
T4 construct: purchased NIMH Psychoactive Drug Screening Program (PDSP)
Procedure: as §1

[5] = biological target: T5, 5-HT2C (serotonin receptor) (Homo sapiens, UniProt P28335); settings: 10 µM; HEK membrane fractions; quadruplicate
T5 construct: purchased NIMH Psychoactive Drug Screening Program (PDSP)
Procedure: as §1

[6] = biological target: T6, 5-HT3 (serotonin receptor) (Homo sapiens, UniProt P46098); settings: for Binding activity, 5-HT3 (percentage): 10 µM, HEK membrane fractions, quadruplicate
T6 construct: expressed in transfected cells; crude membrane fractions
T6 sequence (P46098 24-478): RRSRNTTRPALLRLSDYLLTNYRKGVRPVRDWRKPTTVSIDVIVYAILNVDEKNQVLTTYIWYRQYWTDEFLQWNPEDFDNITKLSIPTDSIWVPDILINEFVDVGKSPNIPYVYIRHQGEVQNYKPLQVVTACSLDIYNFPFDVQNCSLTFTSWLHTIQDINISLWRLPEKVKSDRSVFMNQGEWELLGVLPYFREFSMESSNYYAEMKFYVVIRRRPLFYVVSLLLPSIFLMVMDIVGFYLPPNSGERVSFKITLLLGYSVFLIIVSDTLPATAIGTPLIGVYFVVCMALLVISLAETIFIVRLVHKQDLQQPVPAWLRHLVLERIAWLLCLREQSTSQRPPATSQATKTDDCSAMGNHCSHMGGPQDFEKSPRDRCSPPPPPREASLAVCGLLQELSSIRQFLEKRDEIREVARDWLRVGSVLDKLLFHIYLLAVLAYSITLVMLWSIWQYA
Procedure: as §1

[7] = biological target: T7, 5-HT6 (serotonin receptor) (Homo sapiens, UniProt P50406); settings: 10 µM; HEK membrane fractions; quadruplicate
T7 construct: purchased NIMH Psychoactive Drug Screening Program (PDSP)
Procedure: as §1

[8] = biological target: T8, 5-HT7 (serotonin receptor) (Homo sapiens, UniProt P34969); settings: 10 µM; HEK membrane fractions; quadruplicate
T8 construct: purchased NIMH Psychoactive Drug Screening Program (PDSP)
Procedure: as §1

[9] = biological target: T9, 5-hT1e (serotonin receptor) (Homo sapiens, UniProt P28566); settings: 10 µM; HEK membrane fractions; quadruplicate
T9 construct: purchased NIMH Psychoactive Drug Screening Program (PDSP)
Procedure: as §1

[10] = biological target: T10, 5-hT5a (serotonin receptor) (Homo sapiens, UniProt P47898); settings: 10 µM; HEK membrane fractions; quadruplicate
T10 construct: purchased NIMH Psychoactive Drug Screening Program (PDSP)
Procedure: as §1

[11] = biological target: T11, Alpha1A (alpha adrenergic receptor) (Homo sapiens, UniProt P35348); settings: 10 µM; HEK membrane fractions; quadruplicate
T11 construct: purchased NIMH Psychoactive Drug Screening Program (PDSP)
Procedure: as §1

[12] = biological target: T12, Alpha1B (alpha adrenergic receptor) (Homo sapiens, UniProt P35368); settings: 10 µM; HEK membrane fractions; quadruplicate
T12 construct: purchased NIMH Psychoactive Drug Screening Program (PDSP)
Procedure: as §1

[13] = biological target: T13, Alpha1D (alpha adrenergic receptor) (Homo sapiens, UniProt P25100); settings: 10 µM; HEK membrane fractions; quadruplicate
T13 construct: purchased NIMH Psychoactive Drug Screening Program (PDSP)
Procedure: as §1

[14] = biological target: T14, Alpha2B (alpha adrenergic receptor) (Homo sapiens, UniProt P18089); settings: 10 µM; HEK membrane fractions; quadruplicate
T14 construct: purchased NIMH Psychoactive Drug Screening Program (PDSP)
Procedure: as §1

[15] = biological target: T15, Alpha2C (alpha adrenergic receptor) (Homo sapiens, UniProt P18825); settings: 10 µM; HEK membrane fractions; quadruplicate
T15 construct: purchased NIMH Psychoactive Drug Screening Program (PDSP)
Procedure: as §1

[16] = biological target: T16, Beta1 (beta adrenergic receptor) (Homo sapiens, UniProt P08588); settings: 10 µM; HEK membrane fractions; quadruplicate
T16 construct: purchased NIMH Psychoactive Drug Screening Program (PDSP)
Procedure: as §1

[17] = biological target: T17, Beta2 (beta adrenergic receptor) (Homo sapiens, UniProt P07550); settings: 10 µM; HEK membrane fractions; quadruplicate
T17 construct: purchased NIMH Psychoactive Drug Screening Program (PDSP)
Procedure: as §1

[18] = biological target: T18, Beta3 (beta adrenergic receptor) (Homo sapiens, UniProt P13945); settings: 10 µM; HEK membrane fractions; quadruplicate
T18 construct: purchased NIMH Psychoactive Drug Screening Program (PDSP)
Procedure: as §1

D1 (dopamine receptor) = biological target: T19, D1 (dopamine receptor) (Homo sapiens, UniProt P21728); settings: 10 µM; HEK membrane fractions; quadruplicate
T19 construct: purchased NIMH Psychoactive Drug Screening Program (PDSP)
Procedure: as §1

D2 (dopamine receptor) = biological target: T20, D2 (dopamine receptor) (Homo sapiens, UniProt P14416); settings: 10 µM; HEK membrane fractions; quadruplicate
T20 construct: purchased NIMH Psychoactive Drug Screening Program (PDSP)
Procedure: as §1

D3 (dopamine receptor) = biological target: T21, D3 (dopamine receptor) (Homo sapiens, UniProt P35462); settings: 10 µM; HEK membrane fractions; quadruplicate
T21 construct: purchased NIMH Psychoactive Drug Screening Program (PDSP)
Procedure: as §1

D4 (dopamine receptor) = biological target: T22, D4 (dopamine receptor) (Homo sapiens, UniProt P21917); settings: 10 µM; HEK membrane fractions; quadruplicate
T22 construct: purchased NIMH Psychoactive Drug Screening Program (PDSP)
Procedure: as §1

[19] = biological target: T23, DAT (dopamine transporter) (Homo sapiens, UniProt Q01959); settings: 10 µM; HEK membrane fractions; quadruplicate
T23 construct: purchased NIMH Psychoactive Drug Screening Program (PDSP)
Procedure: as §1

DOR (δ-opioid receptor) = biological target: T24, DOR (δ-opioid receptor) (Homo sapiens, UniProt P41143); settings: 10 µM; HEK membrane fractions; quadruplicate
T24 construct: purchased NIMH Psychoactive Drug Screening Program (PDSP)
Procedure: as §1

M1 (muscarinic receptor) = biological target: T25, M1 (muscarinic receptor) (Homo sapiens, UniProt P11229); settings: 10 µM; HEK membrane fractions; quadruplicate
T25 construct: purchased NIMH Psychoactive Drug Screening Program (PDSP)
Procedure: as §1

M2 (muscarinic receptor) = biological target: T26, M2 (muscarinic receptor) (Homo sapiens, UniProt P08172); settings: 10 µM; HEK membrane fractions; quadruplicate
T26 construct: purchased NIMH Psychoactive Drug Screening Program (PDSP)
Procedure: as §1

M3 (muscarinic receptor) = biological target: T27, M3 (muscarinic receptor) (Homo sapiens, UniProt P20309); settings: 10 µM; HEK membrane fractions; quadruplicate
T27 construct: purchased NIMH Psychoactive Drug Screening Program (PDSP)
Procedure: as §1

M4 (muscarinic receptor) = biological target: T28, M4 (muscarinic receptor) (Homo sapiens, UniProt P08173); settings: 10 µM; HEK membrane fractions; quadruplicate
T28 construct: purchased NIMH Psychoactive Drug Screening Program (PDSP)
Procedure: as §1

M5 (muscarinic receptor) = biological target: T29, M5 (muscarinic receptor) (Homo sapiens, UniProt P08912); settings: 10 µM; HEK membrane fractions; quadruplicate
T29 construct: purchased NIMH Psychoactive Drug Screening Program (PDSP)
Procedure: as §1

MOR (µ-opioid receptor) = biological target: T30, MOR (µ-opioid receptor) (Homo sapiens, UniProt P35372); settings: 10 µM; HEK membrane fractions; quadruplicate
T30 construct: purchased NIMH Psychoactive Drug Screening Program (PDSP)
Procedure: as §1

[20] = biological target: T31, NET (norepinephrine transporter) (Homo sapiens, UniProt P23975); settings: 10 µM; HEK membrane fractions; quadruplicate
T31 construct: purchased NIMH Psychoactive Drug Screening Program (PDSP)
Procedure: as §1

[21] = tested on: PBR (peripheral benzodiazepine receptor); settings: 10 µM; HEK membrane fractions; quadruplicate
Procedure: as §1

[22] = biological target: T32, SERT (serotonin transporter) (Homo sapiens, UniProt P31645); settings: 10 µM; HEK membrane fractions; quadruplicate
T32 construct: purchased NIMH Psychoactive Drug Screening Program (PDSP)
Procedure: as §1

T2 sequence (P28221 whole entry, species assumed): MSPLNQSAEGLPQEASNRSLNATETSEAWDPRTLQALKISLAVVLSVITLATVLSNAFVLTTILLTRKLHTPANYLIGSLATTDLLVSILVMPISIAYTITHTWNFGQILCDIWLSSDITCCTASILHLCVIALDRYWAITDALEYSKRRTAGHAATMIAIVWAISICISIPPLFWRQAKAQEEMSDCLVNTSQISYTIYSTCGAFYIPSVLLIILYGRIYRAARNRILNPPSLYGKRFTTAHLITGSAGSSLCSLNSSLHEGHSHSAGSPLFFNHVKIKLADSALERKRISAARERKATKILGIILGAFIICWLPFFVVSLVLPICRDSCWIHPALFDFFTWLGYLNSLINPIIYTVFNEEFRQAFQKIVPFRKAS
T14 sequence (P18089 whole entry): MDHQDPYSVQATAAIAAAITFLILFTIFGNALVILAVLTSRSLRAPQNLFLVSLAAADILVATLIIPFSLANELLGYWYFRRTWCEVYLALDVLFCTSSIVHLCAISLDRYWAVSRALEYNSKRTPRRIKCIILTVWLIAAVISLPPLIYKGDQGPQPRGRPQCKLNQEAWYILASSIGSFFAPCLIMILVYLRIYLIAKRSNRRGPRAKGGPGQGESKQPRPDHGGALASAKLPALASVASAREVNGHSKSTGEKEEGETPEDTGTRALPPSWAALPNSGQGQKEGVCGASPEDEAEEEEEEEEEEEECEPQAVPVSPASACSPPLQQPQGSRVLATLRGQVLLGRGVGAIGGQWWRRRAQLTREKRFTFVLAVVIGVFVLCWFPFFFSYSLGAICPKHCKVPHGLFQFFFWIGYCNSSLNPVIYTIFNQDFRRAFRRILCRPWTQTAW
T4 sequence (P41595 whole entry): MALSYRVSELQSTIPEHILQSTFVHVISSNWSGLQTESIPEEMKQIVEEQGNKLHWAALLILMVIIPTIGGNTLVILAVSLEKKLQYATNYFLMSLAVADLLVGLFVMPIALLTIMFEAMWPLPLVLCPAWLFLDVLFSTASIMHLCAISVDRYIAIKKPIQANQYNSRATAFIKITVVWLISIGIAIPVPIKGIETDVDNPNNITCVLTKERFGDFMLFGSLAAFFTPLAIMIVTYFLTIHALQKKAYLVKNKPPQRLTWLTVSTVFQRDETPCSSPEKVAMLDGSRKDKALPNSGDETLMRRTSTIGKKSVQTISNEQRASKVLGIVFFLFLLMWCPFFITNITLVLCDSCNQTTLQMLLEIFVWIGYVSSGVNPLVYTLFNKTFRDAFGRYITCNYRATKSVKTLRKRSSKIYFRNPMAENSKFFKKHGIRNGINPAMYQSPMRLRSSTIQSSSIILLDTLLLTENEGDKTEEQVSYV
T24 sequence (P41143 whole entry): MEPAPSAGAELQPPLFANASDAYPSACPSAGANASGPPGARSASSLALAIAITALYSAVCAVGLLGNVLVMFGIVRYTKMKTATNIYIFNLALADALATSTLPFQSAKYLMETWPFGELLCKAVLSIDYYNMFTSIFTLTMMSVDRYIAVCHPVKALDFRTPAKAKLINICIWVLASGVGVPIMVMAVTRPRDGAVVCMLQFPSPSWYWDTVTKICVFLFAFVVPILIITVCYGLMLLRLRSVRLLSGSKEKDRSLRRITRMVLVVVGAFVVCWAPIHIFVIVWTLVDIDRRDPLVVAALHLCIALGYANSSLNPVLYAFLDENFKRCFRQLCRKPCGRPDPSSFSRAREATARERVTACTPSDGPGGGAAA
T3 sequence (P28223 whole entry): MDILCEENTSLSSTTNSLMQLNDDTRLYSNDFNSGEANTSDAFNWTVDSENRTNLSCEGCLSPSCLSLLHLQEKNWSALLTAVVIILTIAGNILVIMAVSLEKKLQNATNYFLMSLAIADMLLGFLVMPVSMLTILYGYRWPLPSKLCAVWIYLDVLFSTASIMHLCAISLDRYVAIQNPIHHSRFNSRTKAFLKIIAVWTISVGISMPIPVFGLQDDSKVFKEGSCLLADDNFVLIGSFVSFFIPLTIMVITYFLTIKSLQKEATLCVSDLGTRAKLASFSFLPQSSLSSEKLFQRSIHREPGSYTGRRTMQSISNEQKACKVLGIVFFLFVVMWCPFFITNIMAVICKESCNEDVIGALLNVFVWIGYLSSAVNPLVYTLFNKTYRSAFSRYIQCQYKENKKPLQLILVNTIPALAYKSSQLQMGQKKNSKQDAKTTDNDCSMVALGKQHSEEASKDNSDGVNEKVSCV
T22 sequence (P21917 whole entry): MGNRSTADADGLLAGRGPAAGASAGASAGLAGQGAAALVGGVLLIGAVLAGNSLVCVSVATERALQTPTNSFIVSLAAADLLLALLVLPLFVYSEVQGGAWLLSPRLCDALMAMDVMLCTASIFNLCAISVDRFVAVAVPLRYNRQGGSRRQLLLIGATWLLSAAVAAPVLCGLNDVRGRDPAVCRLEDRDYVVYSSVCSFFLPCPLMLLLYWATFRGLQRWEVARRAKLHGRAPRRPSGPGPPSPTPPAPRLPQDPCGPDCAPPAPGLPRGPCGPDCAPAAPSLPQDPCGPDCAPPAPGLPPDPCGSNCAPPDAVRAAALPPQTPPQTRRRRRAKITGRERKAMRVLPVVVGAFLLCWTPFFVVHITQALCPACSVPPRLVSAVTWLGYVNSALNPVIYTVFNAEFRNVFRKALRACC
T15 sequence (P18825 whole entry): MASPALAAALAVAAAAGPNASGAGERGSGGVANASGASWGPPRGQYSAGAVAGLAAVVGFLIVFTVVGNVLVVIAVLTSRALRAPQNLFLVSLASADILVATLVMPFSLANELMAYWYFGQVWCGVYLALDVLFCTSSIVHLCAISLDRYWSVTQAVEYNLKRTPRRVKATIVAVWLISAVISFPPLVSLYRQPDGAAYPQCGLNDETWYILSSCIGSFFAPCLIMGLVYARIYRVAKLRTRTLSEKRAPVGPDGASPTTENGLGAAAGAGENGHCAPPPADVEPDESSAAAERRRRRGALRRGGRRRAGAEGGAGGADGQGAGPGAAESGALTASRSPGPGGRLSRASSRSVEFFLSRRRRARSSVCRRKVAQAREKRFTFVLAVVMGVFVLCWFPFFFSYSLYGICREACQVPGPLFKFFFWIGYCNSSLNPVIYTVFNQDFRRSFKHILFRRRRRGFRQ
T20 sequence (P14416 whole entry): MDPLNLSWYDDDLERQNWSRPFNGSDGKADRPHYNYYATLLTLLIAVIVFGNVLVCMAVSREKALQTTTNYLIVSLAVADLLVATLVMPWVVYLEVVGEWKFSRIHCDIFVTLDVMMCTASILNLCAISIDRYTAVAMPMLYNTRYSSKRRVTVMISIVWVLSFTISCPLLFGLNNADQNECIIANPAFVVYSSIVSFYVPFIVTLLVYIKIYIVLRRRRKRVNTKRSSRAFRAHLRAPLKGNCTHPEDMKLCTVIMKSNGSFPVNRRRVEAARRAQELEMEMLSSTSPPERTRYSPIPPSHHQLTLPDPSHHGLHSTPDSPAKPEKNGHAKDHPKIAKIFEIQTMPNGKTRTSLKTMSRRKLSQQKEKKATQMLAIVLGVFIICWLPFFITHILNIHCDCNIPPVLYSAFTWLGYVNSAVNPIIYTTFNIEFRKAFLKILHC
T1 sequence (P28222 whole entry): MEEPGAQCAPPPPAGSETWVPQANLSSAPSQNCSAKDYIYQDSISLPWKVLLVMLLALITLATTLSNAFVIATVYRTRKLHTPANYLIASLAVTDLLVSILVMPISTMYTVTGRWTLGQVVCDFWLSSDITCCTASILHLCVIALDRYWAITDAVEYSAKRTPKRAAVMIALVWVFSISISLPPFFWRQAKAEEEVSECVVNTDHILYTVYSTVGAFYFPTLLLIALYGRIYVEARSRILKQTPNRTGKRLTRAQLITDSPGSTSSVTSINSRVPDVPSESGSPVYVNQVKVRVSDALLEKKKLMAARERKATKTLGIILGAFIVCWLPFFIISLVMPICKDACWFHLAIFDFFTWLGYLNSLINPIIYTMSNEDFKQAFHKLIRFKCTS
T5 sequence (P28335 33-458): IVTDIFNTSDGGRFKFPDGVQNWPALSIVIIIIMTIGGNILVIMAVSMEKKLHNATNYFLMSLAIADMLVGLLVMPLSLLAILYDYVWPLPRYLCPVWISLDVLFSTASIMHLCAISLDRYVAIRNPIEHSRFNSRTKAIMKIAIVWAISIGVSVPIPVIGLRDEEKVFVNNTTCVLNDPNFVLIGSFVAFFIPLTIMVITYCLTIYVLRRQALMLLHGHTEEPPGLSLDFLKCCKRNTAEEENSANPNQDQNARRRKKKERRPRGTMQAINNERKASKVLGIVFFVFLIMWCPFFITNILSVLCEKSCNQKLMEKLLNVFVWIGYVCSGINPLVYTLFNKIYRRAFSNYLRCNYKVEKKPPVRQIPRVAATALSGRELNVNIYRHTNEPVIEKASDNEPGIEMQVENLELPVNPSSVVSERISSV
T10 sequence (P47898 whole entry): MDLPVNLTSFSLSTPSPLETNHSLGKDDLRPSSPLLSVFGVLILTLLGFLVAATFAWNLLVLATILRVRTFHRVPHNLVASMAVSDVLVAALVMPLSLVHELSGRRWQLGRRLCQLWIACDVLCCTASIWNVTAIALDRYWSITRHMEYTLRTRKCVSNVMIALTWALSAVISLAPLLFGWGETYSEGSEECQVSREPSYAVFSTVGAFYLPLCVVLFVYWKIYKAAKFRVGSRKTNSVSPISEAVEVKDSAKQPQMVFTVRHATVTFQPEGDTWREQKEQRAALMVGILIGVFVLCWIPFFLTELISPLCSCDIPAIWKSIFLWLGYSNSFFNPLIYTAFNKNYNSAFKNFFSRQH

Row | SMILES | Binding activity, 5-HT1B (percentage) [1] [%] | Binding activity, 5-HT1D (percentage) [2] [%] | Binding activity, 5-HT2A (percentage) [3] [%] | Binding activity, 5-HT2B (percentage) [4] [%] | Binding activity, 5-HT2C (percentage) [5] [%] | Binding activity, 5-HT3 (percentage) [6] [%] | Binding activity, 5-HT6 (percentage) [7] [%] | Binding activity, 5-HT7 (percentage) [8] [%] | Binding activity, 5-hT1e (percentage) [9] [%] | Binding activity, 5-hT5a (percentage) [10] [%] | Binding activity, Alpha1A (percentage) [11] [%] | Binding activity, Alpha1B (percentage) [12] [%] | Binding activity, Alpha1D (percentage) [13] [%] | Binding activity, Alpha2B (percentage) [14] [%] | Binding activity, Alpha2C (percentage) [15] [%] | Binding activity, Beta1 (percentage) [16] [%] | Binding activity, Beta2 (percentage) [17] [%] | Binding activity, Beta3 (percentage) [18] [%] | Binding activity, D1 (percentage) (D1 (dopamine receptor)) [%] | Binding activity, D2 (percentage) (D2 (dopamine receptor)) [%] | further results
1 | O=C(O)CCc1ccc(O)c(O)c1 [DHCA, 3(3,4-dihydroxy-phenyl) propionic acid] | −11.8 | 11.7 | 18 | −7 | −9.9 | −11.7 | 24.2 | 4.2 | −1.7 | 4.2 | 4 | 11.1 | −15.4 | −2.3 | 27.3 | −14.1 | −7.6 | −15.8 | −3.7 | −5.7 | Binding activity, D3 (percentage) (D3 (dopamine receptor)): −18.8%; Binding activity, D4 (percentage) (D4 (dopamine receptor)): 1.9%; Binding activity, DAT (percentage) [19]: 34.5%; Binding activity, DOR (percentage) (DOR (δ-opioid receptor)): 9.5%; Binding activity, M1 (percentage) (M1 (muscarinic receptor)): −1.8%; Binding activity, M2 (percentage) (M2 (muscarinic receptor)): −12.2%; Binding activity, M3 (percentage) (M3 (muscarinic receptor)): 9.4%; Binding activity, M4 (percentage) (M4 (muscarinic receptor)): 3%; Binding activity, M5 (percentage) (M5 (muscarinic receptor)): 21.2%; Binding activity, MOR (percentage) (MOR (µ-opioid receptor)): −7.1%; Binding activity, NET (percentage) [20]: −16.4%; Binding activity, PBR (percentage) [21]: −13.3%; Binding activity, SERT (percentage) [22]: −0.9%
2 | COc1cc(-c2[o+]c3cc(O)cc(O)c3cc2O[C@@H]2O[C@H](CO)[C@@H](O)[C@H](O)[C@H]2O)cc(OC)c1O [Mal-gluc] | 10.4 | 54 | −10.5 | −13.8 | −6.9 | 74.1 | −18.5 | −13.5 | 10.3 | 5.2 | −4.5 | 24.4 | −1.3 | −5.9 | −11 | −15.5 | 1.9 | −17.7 | −10.3 | 7.2 | Ki ([2]; secondary radioligand binding assay, read-out: calculated inhibitory constant (Ki), 5-HT1D): > 10 µM; Ki ([6]; secondary radioligand binding assay, read-out: calculated inhibitory constant (Ki), 5-HT3): 4.3 µM; Binding activity, D3 (percentage) (D3 (dopamine receptor)): 7.2%; Binding activity, D4 (percentage) (D4 (dopamine receptor)): −2%; Binding activity, DAT (percentage) [19]: −18.2%; Binding activity, DOR (percentage) (DOR (δ-opioid receptor)): −10.2%; Binding activity, M1 (percentage) (M1 (muscarinic receptor)): −6.2%; Binding activity, M2 (percentage) (M2 (muscarinic receptor)): 5.2%; Binding activity, M3 (percentage) (M3 (muscarinic receptor)): 23.6%; Binding activity, M4 (percentage) (M4 (muscarinic receptor)): −4.6%; Binding activity, M5 (percentage) (M5 (muscarinic receptor)): −10.2%; Binding activity, MOR (percentage) (MOR (µ-opioid receptor)): −5%; Binding activity, NET (percentage) [20]: −9.4%; Binding activity, PBR (percentage) [21]: 15.7%; Binding activity, SERT (percentage) [22]: 7.8%
